Literature values as cited in US8709476B2, “Compositions of quaternary ammonium compounds containing bioavailability enhancers” (Supernus Pharmaceuticals, Inc., priority 2003, dated 2014).

Conditions: in humans; oral dosage form

In the case of O=C(O[C@H]1C[C@H]2CC[C@@H](C1)[N+]21CCCC1)C(O)(c1ccccc1)c1ccccc1 [Trospium chloride], the bioavailability is given as “up to 10%”.
